Test results published in patent US4921984A, “Novel platinum complexes” (Nippon Kayaku Kabushiki Kaisha, priority 1985, dated 1990).

Experiments:
various tumor cells = assay: Antitumor activity on various tumors (general statement); assay type: in vivo, mouse; details: in words
Procedure: (§1) 1×10^6 mouse leukemia P388 cells were inoculated into the abdominal cavities of 6-week-old female CDF1 mice, and from the next day a compound No. 15 was administered to them intraperitoneally once a day for 5 consecutive days. Separately, 1×10^6 mouse lung cancer Lewis lung carcinoma (LL) cells were inoculated into the abdominal cavities of male BDFl mice, and from the next day a compound No. 15 was administered to them intraperitoneally once a day for 5 consecutive days. Separately, 1×10^6 mouse fibrosarcoma M5076 cells were inoculated into the body sides of female C57BL/6 mice subcutaneously, and from the next day a compound No. 15 was administered to them intraperitoneally. Separately, 1×10^6 mouse colon cancer (colon 26) cells were inoculated into the abdominal cavities of female CDF1 mice, and from the next day a compound No. 15 was administered to them intraperitoneally. To respective control groups (compound-non-treated groups), physiological saline solution was administered.
(§2) From the survival times of the compound-treated group and the control group, respective median values (median survival times) were calculated. Using these values, T/C percentage was calculated from the following equation. [formula]

[1] = tested on: mouse leukemia P388 cells; assay: Antitumor activity test in vivo, mouse leukemia P388; details: for Opt. dose: P388, i.p. once a day for 5 days; for Max (T/C): P388, median survival time, i.p. once a day for 5 days
Procedure: as §1, §2

Test for renal toxicity = details: mouse, in vivo
Procedure: A compound was administered one time to 6-week-old male CDFl mice intraperitoneally. After 4 days, their blood was collected for measurement of blood urea nitrogen concentration (BUN value).
In Table 6, body weight ratio is a ratio of body weight after 4 days from administration to body weight of administration day.

[2] = tested on: mouse lung cancer Lewis lung carcinoma (LL) cells; assay: Antitumor activity test in vivo, Lewis lung carcinoma (LL); details: i.p. once a day for 5 days; for Max (T/C): median survival time
Procedure: as §1, §2

[3] = tested on: mouse leukemia L1210 cells; assay: Growth inhibition test on cultured mouse leukemia L1210 cells; assay type: cell-based; details: RPMI 1640 with 10% fetal calf serum
Procedure: Mouse leukemia L1210 cells were cultured in a RPMI 1640 medium containing 10% of fetal calf serum.

mouse leukemia L1210 = assay: Antitumor activity test on mouse leukemia L1210 in vivo; details: for max (T/C): L1210, average survival time treated/control ×100, i.p. once a day for 5 days; for Opt. dose: L1210, dose giving max (T/C); for Opt. dose / LD50: i.p. once a day for 5 days; for LD50: L1210-bearing CDF1 mice
Procedure: Mice of compound-non-treated group (control group) were administered with physiological saline solution in the same manner. The average survival times of the compound-treated group and the control group (abbreviated as T and C, respectively) were measured and T/C percentage (T/C×100) was calculated from the following equation. [formula]
In Table 4, max (T/C) means the maximum value of T/C and optimum dose (opt. dose) means an administration amount giving the max namely, an optimum administration amount.

[4] = rate, in words; prior art; cited from earlier work
[5] = tested on: mouse fibrosarcoma M5076 cells; assay: Antitumor activity test in vivo, fibrosarcoma M5076; details: M5076 inoculated s.c., i.p. administration
Procedure: as §1, §2

[6] = tested on: mouse colon cancer (colon 26) cells; assay: Antitumor activity test in vivo, colon 26
Procedure: as §1, §2

[7] = tested on: cis-Platin resistant mouse leukemia L1210 cells; assay: Growth inhibition test on cis-Platin resistant L1210 tumor cells; assay type: cell-based; details: ratio of IC50 on cis-Platin resistant to non-resistant L1210 cells
From the text: (§3) 1×10^5 mouse leukemia L1210 cells or 1×10^5 mouse leukemia P388 cells were inoculated into the abdominal cavities of CDF1 female mouse. […] After 5 days, their tumor cells were inoculated to the abdominal cavities of other CDF1 female mouse, and the same treatment was applied.

[8] = tested on: cis-Platin resistant mouse leukemia P388 cells; assay: Growth inhibition test on cis-Platin resistant P388 tumor cells; assay type: cell-based; details: ratio of IC50 on cis-Platin resistant to non-resistant P388 cells
From the text: as §3

SMILES | antitumor effect (various tumor cells) | Opt. dose [1] | Max (T/C) [1] | renal toxicity (Test for renal toxicity) | Solubility in water | Opt. dose [2] | Max (T/C) [2] | IC50 [3] | max (T/C) (mouse leukemia L1210) | Opt. dose (mouse leukemia L1210) | LD50 (mouse leukemia L1210) | dissolution in water [4] | Opt. dose [5] | Max (T/C) ([5]; median survival time) | Opt. dose ([6]; Colon 26, i.p. administration) | Max (T/C) ([6]; Colon 26, median survival time, i.p. administration) | IC50 R/IC50, Tumor cell L1210 [7] | IC50 R/IC50, Tumor cell P388 [8] | Solubility in physiological saline solution (physiological saline)
C[C@@H](CN)CCN.O=C([O-])C1(C(=O)[O-])CCC1.[Pt+2] (stereo in doubt) [15R, cis-cyclobutane-1,1-dicarboxylato-R-2-methyl-1,4-butanediamine platinum] | excellent antitumor activities on various tumor cells | 20 mg/kg | 253% | very low renal toxicity | > 15 mg/mL | 30 mg/kg | 166% | 0.78 µg/mL | 189% | 32 mg/kg | 33.6 mg/kg |  |  |  |  |  |  |  | 
C[C@H]1CC[NH2+][Pt-2]2([NH2+]C1)[O]C(=O)C1(CCC1)C(=O)[O]2 [15S, cis-cyclobutane-1,1-dicarboxylato-S-2-methyl-1,4-butanediamine platinum] | excellent antitumor activities on various tumor cells | 40 mg/kg | 253% | very low renal toxicity | > 15 mg/mL | 50 mg/kg | 164% | 1.08 µg/mL | 206% | 32 mg/kg | 48.0 mg/kg |  |  |  |  |  |  |  | 
N.N.[Cl][Pt][Cl] [cis-Platin, cis-dichlorodiammineplatinum, reference compound] |  |  |  |  |  |  |  |  |  | 4 mg/kg |  | dissolving in water slowly |  |  |  |  |  |  | 
CC1CC[NH2+][Pt-2]2([NH2+]C1)[O]C(=O)C1(CCC1)C(=O)[O]2 (racemic) [Compound No. 15, cis-Cyclobutane-1,1-dicarboxylato-2-methyl-1,4-butanediamine platinum] |  | 32 mg/kg | 260% |  | > 8 mg/mL | 32 mg/kg | 222% | 1.20 µg/mL | 182% | 32 mg/kg | 80.0 mg/kg |  | 16 mg/kg | 152% | 32 mg/kg | 198% | 3.19 | 3.26 | 
CCC1CC[NH2+][Pt-2]([Cl])([Cl])[NH2+]C1 (racemic) [Compound No. 29, cis-Dichloro-2-ethyl-1,4-butanediamine platinum] |  |  |  |  |  |  |  | 0.05 µg/mL | 261% | 2 mg/kg | 3.0 mg/kg |  |  |  |  |  |  |  | > 2 mg/ml
